This is an account of results in patent publication US20190100555A1, “EYE-CARE PEPTIDE, ITS COMPOSITION AND METHOD OF USING THE SAME” (PRO SUNFUN BIOTECH RESEARCH AND DEVELOPMENT CO., LTD., priority 2017, published 2019).

This series deals with HCEC cells. Kind of series: MTT assay (cell viability). It is filed as cell-based, Human. The procedure: Human corneal epithelial cell line, HCEC, was cultured in complete KSF containing keratinocyte-serum free medium, 5 ng/ml human recombinant EGF, 0.05 mg/ml bovine pituitary extract, 0.005 mg/ml insulin and 500 ng/ml hydrocortisone under 5% CO2 at 37° C.
Cells (2×10^4) in 1 ml complete KSF were seeded in 12-well plates with or without Peptide NO. 12. Seventy microliters of 5 mg/ml 3-(4,5-dimethyl-2-thiazolyl)-2,5-diphenyl-2H-tetrazolium bromide solution (MTT; Sigma) was added to each well for the indicated times and incubated at 37° C. for 3 hours, after which 700 μl 10% SDS in 0.01 N HCl was added to dissolve the MTT formazan crystals. The resultant optical density was measured spectrophotometrically at dual wavelengths, 550 and 630 nm.

Peptide text beside a SMILES is read from it.

On to `CC(C)C[C@H](NC(=O)[C@@H]1CCCN1C(=O)[C@H](CC(N)=O)NC(=O)[C@@H](N)CCCNC(=N)N)C(=O)N[C@@H](CCC(=O)O)C(=O)N[C@@H](CCC(=O)O)C(=O)N[C@H](C(=O)O)[C@@H](C)O` [Peptide NO. 12, ArgAsnProLeuGluGluThr] (H-RNPLEET-OH), for which the “viability of HCEC cells” value by setting is: (24 hours, 5, 10, 25 and 50 μg/ml) “did not significantly affect viability”; (48 hours, 5, 10, 25 and 50 μg/ml) “did not significantly affect viability”.
